Measured values reported in patent US10538532B2, “Hepatitis B antiviral agents” (ENANTA PHARMACEUTICALS, INC., priority 2016, dated 2020).
Read-outs that look alike come from different tables or passages of the source.

Test system: HBV
Experiment: HepAD38 antiviral assay: reduction of viral product accumulation (virion DNA by qPCR, HBsAg or HBeAg by ELISA)
Type: cell-based, hepatitis B virus
Settings: HepAD38 cells, five days after compound addition, concentration reducing viral product accumulation by 50% relative to no drug controls, read-out: HepAD38 EC50
In short: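 EC50 values represent 50% reduction of viral product accumulation in lysates or supernatants relative to untreated controls, with virion DNA read by qPCR and HBsAg/HBeAg by ELISA. Measurements followed 5 days of treatment, or 8 days with compound renewed on d2 and d5. Cells were tetracycline-depleted HepAD38 at 35,000/well, dosed with a 1:200 dilution of DMSO stocks.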

[1] = Hepatitis B virus, HePAD38, 120 h

SMILES | EC50 [1] | EC50
O=C(Nc1cc(F)c(F)c(F)c1)c1ccc(Cl)c(S(=O)(=O)[C@H]2C3CC[C@H]2C[C@](O)(/C=N/OCc2ccccc2)C3)c1 [Example 205] | < 100 nM | 
O=C(Nc1cc(F)c(F)c(F)c1)c1ccc(Cl)c(S(=O)(=O)C2CC3CCC(C2)C3=O)c1 (stereo not drawn) [Example 206] |  | > 400 nM
C=C1C2CCC1CC(S(=O)(=O)c1cc(C(=O)Nc3cc(F)c(F)c(F)c3)ccc1Cl)C2 (stereo not drawn) [Example 207] | > 400 nM | 
O=C(Nc1cc(F)c(F)c(F)c1)c1ccc(Cl)c(S(=O)(=O)[C@H]2CC3CCC(C2)[C@]3(O)CO)c1 [Example 208] |  | > 400 nM
N#CC1CON(Cc2ccccc2)C1[C@]1(O)CC2CC[C@@H](C1)[C@H]2S(=O)(=O)c1cc(C(=O)Nc2cc(F)c(F)c(F)c2)ccc1Cl (stereo partly drawn) [Example 209] | > 400 nM | 
N#CC1CON(Cc2ccccc2)C1C1=C[C@@H]2CCC(C1)[C@@H]2S(=O)(=O)c1cc(C(=O)Nc2cc(F)c(F)c(F)c2)ccc1Cl (stereo partly drawn) [Example 210] | > 400 nM | 
COC(=O)C1CON(Cc2ccccc2)[C@@]12CC1CC[C@@H](C2)[C@H]1S(=O)(=O)c1cc(C(=O)Nc2cc(F)c(F)c(F)c2)ccc1Cl (stereo partly drawn) [Example 211] | > 400 nM | 
COC(=O)C1OCN(Cc2ccccc2)[C@]12CC1CC[C@@H](C2)[C@H]1S(=O)(=O)c1cc(C(=O)Nc2cc(F)c(F)c(F)c2)ccc1Cl (stereo partly drawn) [Example 212] | > 400 nM | 
COC(=O)C1CON(Cc2ccccc2)C1[C@]1(O)CC2CC[C@@H](C1)[C@H]2S(=O)(=O)c1cc(C(=O)Nc2cc(F)c(F)c(F)c2)ccc1Cl (stereo partly drawn) [Example 213] | > 400 nM | 
COC(=O)C1CON(Cc2ccccc2)C1C1=C[C@@H]2CCC(C1)[C@@H]2S(=O)(=O)c1cc(C(=O)Nc2cc(F)c(F)c(F)c2)ccc1Cl (stereo partly drawn) [Example 214] | 100 to 400 nM | 
COC(=O)C1=CON(Cc2ccccc2)C1[C@]1(O)CC2CC[C@@H](C1)[C@H]2S(=O)(=O)c1cc(C(=O)Nc2cc(F)c(F)c(F)c2)ccc1Cl (stereo partly drawn) [Example 215] | > 400 nM | 
COC(=O)C1=CON(Cc2ccccc2)C1[C@]1(O)CC2CC[C@@H](C1)[C@H]2S(=O)(=O)c1cc(C(=O)Nc2cc(F)c(F)c(F)c2)ccc1Cl (stereo partly drawn) [Example 216] |  | > 400 nM
COC(=O)C1CON(C)[C@@]12CC1CC[C@@H](C2)[C@H]1S(=O)(=O)c1cc(C(=O)Nc2cc(F)c(F)c(F)c2)ccc1Cl (stereo partly drawn) [Example 217] | > 400 nM | 
COC(=O)C1CON(C)[C@]12CC1CC[C@@H](C2)[C@H]1S(=O)(=O)c1cc(C(=O)Nc2cc(F)c(F)c(F)c2)ccc1Cl (stereo partly drawn) [Example 218] | > 400 nM | 
CCOC(=O)/C=C1/CC2CC[C@@H](C1)[C@H]2S(=O)(=O)c1cc(C(=O)Nc2cc(F)c(F)c(F)c2)ccc1Cl [Example 221] | 100 to 400 nM | 
CCOC(=O)/C=C/[C@]1(O)CC2CC[C@@H](C1)[C@H]2S(=O)(=O)c1cc(C(=O)Nc2cc(F)c(F)c(F)c2)ccc1Cl [Example 222] | > 400 nM | 
O=C(Nc1cc(F)c(F)c(F)c1)c1ccc(Cl)c(S(=O)(=O)[C@H]2CC3CCC(C2)[C@@]3(O)CO)c1 [Example 223] | < 100 nM | 
O=C(Nc1cc(F)c(F)c(F)c1)c1ccc(Cl)c(S(=O)(=O)[C@H]2C3CC[C@H]2C[C@](O)(/C=N/OCc2ccc(-c4ccccc4)cc2)C3)c1 [Example 224] | 100 to 400 nM | 
O=C(O)/C=C/[C@]1(O)CC2CC[C@@H](C1)[C@H]2S(=O)(=O)c1cc(C(=O)Nc2cc(F)c(F)c(F)c2)ccc1Cl [Example 225] | > 400 nM | 
O=C(Nc1cc(F)c(F)c(F)c1)c1ccc(Cl)c(S(=O)(=O)[C@H]2C3CC[C@H]2C[C@H](/C=N/O)C3)c1 [Example 229] | < 100 nM | 
Cc1ccc(CO/N=C/[C@]2(O)CC3CC[C@@H](C2)[C@H]3S(=O)(=O)c2cc(C(=O)Nc3cc(F)c(F)c(F)c3)ccc2Cl)cc1 [Example 230] | 100 to 400 nM | 

SMILES | EC50 [1] | EC50
O=C(Nc1cc(F)c(F)c(F)c1)c1ccc(Cl)c(S(=O)(=O)[C@H]2C3CC[C@H]2C[C@](O)(/C=N/OCc2ccc(C(F)(F)F)cc2)C3)c1 [Example 231] | 100 to 400 nM | 
O=C(Nc1cc(F)c(F)c(F)c1)c1ccc(Cl)c(S(=O)(=O)[C@H]2C3CC[C@H]2C[C@](O)(/C=N/OCc2ccc(F)cc2)C3)c1 [Example 232] | < 100 nM | 
COc1ccc(CO/N=C/[C@]2(O)CC3CC[C@@H](C2)[C@H]3S(=O)(=O)c2cc(C(=O)Nc3cc(F)c(F)c(F)c3)ccc2Cl)cc1 [Example 233] | < 100 nM | 
O=C(Nc1cc(F)c(F)c(F)c1)c1ccc(Cl)c(S(=O)(=O)[C@H]2C3CC[C@H]2C[C@](O)(/C=N/OCc2ccc([N+](=O)[O-])cc2)C3)c1 [Example 234] | 100 to 400 nM | 
O=C(Nc1cc(F)c(F)c(F)c1)c1ccc(Cl)c(S(=O)(=O)[C@H]2C3CC[C@H]2C[C@](O)(/C=N/OCc2c(F)c(F)c(F)c(F)c2F)C3)c1 [Example 235] | 100 to 400 nM | 
O=C(Nc1cc(F)c(F)c(F)c1)c1ccc(Cl)c(S(=O)(=O)[C@H]2C3CC[C@H]2C[C@](O)(/C=N/OCc2cccc(F)c2)C3)c1 [Example 236] | 100 to 400 nM | 
COc1cccc(CO/N=C/[C@]2(O)CC3CC[C@@H](C2)[C@H]3S(=O)(=O)c2cc(C(=O)Nc3cc(F)c(F)c(F)c3)ccc2Cl)c1 [Example 237] | 100 to 400 nM | 
COc1ccccc1CO/N=C/[C@]1(O)CC2CC[C@@H](C1)[C@H]2S(=O)(=O)c1cc(C(=O)Nc2cc(F)c(F)c(F)c2)ccc1Cl [Example 238] | 100 to 400 nM | 
O=C(Nc1cc(F)c(F)c(F)c1)c1ccc(Cl)c(S(=O)(=O)[C@H]2C3CC[C@H]2C[C@H](c2cc(-c4ccccc4)on2)C3)c1 [Example 239] | < 100 nM | 
O=C(Nc1cc(F)c(F)c(F)c1)c1ccc(Cl)c(S(=O)(=O)C[C@H]2CC3CC2[C@H](O)[C@@H]3O)c1 (stereo partly drawn) [Example 241] | < 100 nM | 
O=C(Nc1cc(F)c(F)c(F)c1)c1ccc(Cl)c(S(=O)(=O)C[C@@H]2CC3CC2[C@H](O)[C@@H]3O)c1 (stereo partly drawn) [Example 242] | 100 to 400 nM | 
O=C(Nc1cc(F)c(F)c(F)c1)c1ccc(Cl)c(S(=O)(=O)CC2CC3CCC2C(O)C3O)c1 (stereo not drawn) [Example 243] | < 100 nM | 
O=C(Nc1cc(F)c(F)c(F)c1)c1ccc(Cl)c(S(=O)(=O)[C@H]2C3CC[C@H]2C[C@](O)(/C=N/OCc2ccccc2F)C3)c1 [Example 244] | < 100 nM | 
O=C(Nc1cc(F)c(F)c(F)c1)c1ccc(Cl)c(S(=O)(=O)C2CC3CCC(C2)C3=O)c1 (stereo not drawn) [Example 245] |  | 100 to 400 nM
C[C@@]1(O)CC2CC[C@@H](C1)[C@H]2S(=O)(=O)c1cc(C(=O)Nc2cc(F)c(F)c(F)c2)ccc1Cl [Example 247] | < 100 nM | 
C[C@H](N)C(=O)OC[C@]1(O)CC2CC[C@@H](C1)[C@H]2S(=O)(=O)c1cc(C(=O)Nc2cc(F)c(F)c(F)c2)ccc1Cl [Example 248] | < 100 nM | 
O=C(Nc1cc(F)c(F)c(F)c1)c1ccc(Cl)c(S(=O)(=O)[C@H]2CC3CCC(C2)[C@H]3CO)c1 [Example 249] | 100 to 400 nM | 
O=C(Nc1cc(F)c(F)c(F)c1)c1ccc(Cl)c(S(=O)(=O)[C@H]2CC3CCC(C2)[C@@H]3CO)c1 [Example 250] | > 400 nM | 
C[C@]1(O)C2CCC1C[C@H](S(=O)(=O)c1cc(C(=O)Nc3cc(F)c(F)c(F)c3)ccc1Cl)C2 [Example 251] |  | > 400 nM
CC(C)[C@H](N)C(=O)OC[C@]1(O)CC2CC[C@@H](C1)[C@H]2S(=O)(=O)c1cc(C(=O)Nc2cc(F)c(F)c(F)c2)ccc1Cl [Example 254] | < 100 nM | 
CC(C)(C)OC(=O)N1C2CCC1CC(S(=O)(=O)c1cc(C(=O)Nc3cc(F)c(F)c(F)c3)ccc1Cl)C2 (stereo not drawn) [Example 255] | > 400 nM | 
